Data: patent US20260008760A1, “DIPEPTIDYL PEPTIDASE 1 INHIBITORS AND USES THEREOF” (Insmed Incorporated, priority 2024, published 2026)
Several values for one entry are separate records, joined by “and”; a condition that tells them apart may be missing. Equal entries are not always repeated.

Columns and labels:
active mouse DPP1 enzyme = target: T1, active mouse DPP1 enzyme (Mus musculus, UniProt P97821); test: Mouse DPP1 Enzyme IC50 Assay; type: biochemical; conditions: active mouse DPP1 enzyme, H-Gly-Arg-AMC substrate, 10 minutes pre-incubation at 37° C., pH 5.5; average of n runs; read-out: Avg. IC50 (Mouse DPP1 enzyme IC50 value ranges)
T1 construct: Each subunit is composed of an N-terminal fragment, a heavy chain and a light chain; purchased R&D Systems
Method: Example 96: Mouse DPP1 Enzyme IC50 Assay
Test articles were applied to active mouse DPP1 enzyme (R&D Systems; Minneapolis, MN) in Assay Buffer (50 mM MES pH 5.5, 50 mM NaCl, 5 mM DTT) in a total reaction volume of 125 μL. 25 μL of compound in Assay Buffer plus […] was first added to 50 μL of active mouse DPP1 enzyme at a concentration of 62.5 pg/μL and allowed to pre-incubate for 10 minutes at 37° C. after which 50 μL of […] H-Gly-Arg-AMC substrate (Bachem; St. Torrance, CA) was added, giving final substrate concentration of 400 µM and a final DMSO concentration of […]. Substrate cleavage was measured for 90 minutes at 37° C., with fluorescence at Excitation/Emission 350/450 nm measured every 5 minutes. DPP1 concentration was interpolated based on its activity relative to a standard curve of recombinant active mouse DPP enzyme. IC50 values for each compound were calculated via the XLFit (IDBS Version 5.3.1.3) Add-On to Microsoft Excel using the four parameter fit equation y=(A+((B−A)/(1+((C/x)^D)))), which appears as equation number 205 (4 Parameter Logistic Model or Sigmoidal Dose-Response Model) in XLFit. Default constraints were used for each Parameter. IC50 was defined as the compound concentration at which 50% of enzyme activity was inhibited when compared to the no-compound control.
In Table 2, *** represent average IC50≤5 nM, ** represents average IC50 in the range of 5-20 nM, and * represents average IC50 in the range of ≥20 nM, where the designations were made solely based on the average value without taking into account of the standard deviations.

DPP1 in HL-60 cells = DPP1 in HL-60 cells (Homo sapiens, UniProt P53634); test: DPP1 Cell IC50 assay; type: cell-based; design: host or cells: HL-60 cells; conditions: 60 min pre-incubation, H-Gly-Phe-AFC substrate, average of n runs, read-out: Avg. IC50 (DPP1 Cell IC50 value ranges)
Summary of the method: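 Intracellular DPP1 activity read as AFC fluorescence (Ex/Em 400/505 nm) after 30 min with H-Gly-Phe-AFC (500 μM stock), following 60 min compound pre-incubation at 37° C with HL-60 cells at 5×10^5 live cells per mL in PBS. IC50 by 4-parameter fit against DMSO-only controls.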

human DPP1 enzyme = human DPP1 enzyme (Homo sapiens, UniProt P53634); test: Human DPP1 Enzyme IC50 Assay; type: biochemical; design: was first proteolytically processed into its mature form using recombinant human cathepsin L; purchased R&D Systems; conditions: activated recombinant human DPP1, 400 μM H-Gly-Arg-AMC, 10 minutes pre-incubation at 37° C., pH 6.0; average of n runs; read-out: Avg. IC50 (Human DPP1 enzyme IC50 value ranges)
Summary of the method: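 IC50 came from a four-parameter fit of activity relative to no-compound control, with fluorescence (Ex 350/Em 450 nm) read every 5 min for 90 min at 37 °C using 400 μM final H-Gly-Arg-AMC. Cathepsin L-matured human recombinant DPP1 was preincubated 10 min with compound at pH 6.0 (MES, DTT, 1% DMSO).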

T1 sequence (P97821 25-134 limits assumed): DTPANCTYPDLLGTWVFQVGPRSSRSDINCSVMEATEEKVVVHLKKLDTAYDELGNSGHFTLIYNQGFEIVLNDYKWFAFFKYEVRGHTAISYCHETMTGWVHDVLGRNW
T1 sequence (P97821 231-393 limits assumed): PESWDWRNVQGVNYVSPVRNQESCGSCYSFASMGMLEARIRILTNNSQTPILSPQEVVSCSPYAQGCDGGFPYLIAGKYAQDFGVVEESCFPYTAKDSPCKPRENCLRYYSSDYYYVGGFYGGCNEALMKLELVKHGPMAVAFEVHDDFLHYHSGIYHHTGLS
T1 sequence (P97821 394-462 limits assumed): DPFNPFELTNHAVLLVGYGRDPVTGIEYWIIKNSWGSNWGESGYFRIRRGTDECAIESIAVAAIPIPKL
Chain of DPP1 in HL-60 cells (P53634 25-463): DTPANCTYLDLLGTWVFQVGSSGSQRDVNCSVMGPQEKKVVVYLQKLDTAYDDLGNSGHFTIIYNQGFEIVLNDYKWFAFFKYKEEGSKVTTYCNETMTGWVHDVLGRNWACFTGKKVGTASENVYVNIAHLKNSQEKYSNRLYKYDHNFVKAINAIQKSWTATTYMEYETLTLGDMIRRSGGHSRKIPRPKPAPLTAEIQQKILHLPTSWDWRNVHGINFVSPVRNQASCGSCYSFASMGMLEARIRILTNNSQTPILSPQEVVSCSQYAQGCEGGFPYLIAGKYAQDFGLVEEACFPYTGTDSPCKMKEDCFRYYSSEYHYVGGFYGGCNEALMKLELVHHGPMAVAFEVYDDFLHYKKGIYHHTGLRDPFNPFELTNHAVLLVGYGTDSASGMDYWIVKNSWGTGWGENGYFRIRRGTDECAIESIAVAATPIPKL
Chain of human DPP1 enzyme (P53634 25-134 limits assumed): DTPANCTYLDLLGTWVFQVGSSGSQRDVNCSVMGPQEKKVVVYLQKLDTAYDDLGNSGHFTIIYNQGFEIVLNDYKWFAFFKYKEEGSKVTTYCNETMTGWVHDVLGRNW
Chain of human DPP1 enzyme (P53634 231-394 limits assumed): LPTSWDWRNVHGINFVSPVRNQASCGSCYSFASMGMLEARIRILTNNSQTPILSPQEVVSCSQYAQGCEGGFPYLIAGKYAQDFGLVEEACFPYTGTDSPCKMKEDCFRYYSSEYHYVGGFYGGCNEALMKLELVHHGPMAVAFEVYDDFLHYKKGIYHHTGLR
Chain of human DPP1 enzyme (P53634 395-463 limits assumed): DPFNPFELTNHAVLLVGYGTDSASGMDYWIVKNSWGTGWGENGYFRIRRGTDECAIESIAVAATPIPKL

| Compound | IC50 (active mouse DPP1 enzyme) [nM] | IC50 (DPP1 in HL-60 cells) | IC50 (human DPP1 enzyme) [nM] |
| --- | --- | --- | --- |
| CN1C(=O)C2(CCCN(C3COC3)C2)c2cc(-c3ccc(C[C@@H](C#N)NC(=O)[C@@H]4CNCCCO4)cc3)ccc21 (stereo partly drawn) [Compound 28, (2S)—N-[(1S)-1-cyano-2-{4-[1-methyl-1′-(oxetan-3-yl)-2-oxospiro[indole-3,3′-piperidin]-5-yl]phenyl}ethyl]-1,4-oxazepane-2-carboxamide] | > 20 | > 2.5 nM | > 15 |
| CN1C(=O)CCc2cc(-c3ccc(C[C@@H](C#N)NC(=O)[C@@H]4CNCCCO4)cc3)ccc21 [Compound A21, (2S)—N-[(1S)-1-cyano-2-[4-(1-methyl-2-oxo-3,4-dihydroquinolin-6-yl)phenyl]ethyl]-1,4-oxazepane-2-carboxamide] | > 20 | > 2.5 nM | > 15 |
| Cn1nc(F)c2ccc(-c3ccc(C[C@@H](C#N)NC(=O)[C@@H]4CNCCCO4)cc3)cc21 [Compound A1, (S)—N—((S)-1-cyano-2-(4-(3-fluoro-1-methyl-1H-indazol-6-yl)phenyl)ethyl)-1,4-oxazepane-2-carboxamide] | > 20 | > 2.5 nM | > 15 |
| Cc1nc(-c2ccc(C[C@@H](C#N)NC(=O)[C@@H]3CNCCCO3)cc2)sc1C#N [Compound 10, (2S)—N-[(1S)-1-cyano-2-[4-(5-cyano-4-methyl-1,3-thiazol-2-yl)phenyl]ethyl]-1,4-oxazepane-2-carboxamide] | > 20 | > 2.5 nM | > 15 |
| Cc1cn2cc(-c3ccc(C[C@@H](C#N)NC(=O)[C@@H]4CNCCCO4)cc3)cc2c(C)n1 [Compound A8, (2S)—N-[(1S)-1-cyano-2-(4-{1,3-dimethylpyrrolo[1,2-a]pyrazin-7-yl}phenyl)ethyl]-1,4-oxazepane-2-carboxamide] | > 20 | > 2.5 nM | > 15 |

Next, values leading:

| IC50 (active mouse DPP1 enzyme) [nM] | IC50 (DPP1 in HL-60 cells) | IC50 (human DPP1 enzyme) [nM] | Compound |
| --- | --- | --- | --- |
| < 5 | 1 to 2.5 nM | 5 to 15 | N#C[C@H](Cc1cc2c(cc1F)-c1cc(C3COC3)c(F)cc1CO2)NC(=O)[C@@H]1CNCCCCO1 [Compound B10-B] |
| < 5 | < 1 nM | < 5 | CO[C@@H]1CCNC[C@@H](C(=O)N[C@H](C#N)Cc2ccc(-c3ccc(C#N)cc3)cc2F)OC1 [Compound F4, (2S,7R)—N—((S)-1-cyano-2-(4′-cyano-3-fluoro-[1,1′-biphenyl]-4-yl)ethyl)-7-methoxy-1,4-oxazocane-2-carboxamide] |
| > 20 | > 2.5 nM and 1 to 2.5 nM | > 15 | Cc1cn2cc(-c3ccc(C[C@@H](C#N)NC(=O)[C@@H]4CNCCCCO4)cc3)cc2c(C)n1 [Compound A27, (2S)—N-[(1S)-1-cyano-2-(4-{1,3-dimethylpyrrolo[1,2-a]pyrazin-7-yl}phenyl)ethyl]-1,4-oxazocane-2-carboxamide] |
| > 20 | 1 to 2.5 nM | > 15 | Cc1cn2cc(-c3ccc(C[C@@H](C#N)NC(=O)[C@@H]4CNCCCCO4)c(F)c3)cc2c(C)n1 [Compound A28, (2S)—N-[(1S)-1-cyano-2-(4-{1,3-dimethylpyrrolo[1,2-a]pyrazin-7-yl}-2-fluorophenyl)ethyl]-1,4-oxazocane-2-carboxamide] |
| > 20 | > 2.5 nM | > 15 | N#C[C@H](Cc1ccc(-c2ccc3c(c2)CCCS3)cc1)NC(=O)[C@@H]1CNCCCO1 [Compound A5, (2S)—N-[(1S)-1-cyano-2-[4-(3,4-dihydro-2H-1-benzothiopyran-6-yl)phenyl]ethyl]-1,4-oxazepane-2-carboxamide] |
| < 5 | 1 to 2.5 nM | < 5 | CO[C@@H]1CCNC[C@@H](C(=O)N[C@H](C#N)Cc2ccc(-c3cc4c(C)nc(C)cn4c3)cc2F)OC1 [Compound A47, (2S,7R)—N-[(1S)-1-cyano-2-(4-{1,3-dimethylpyrrolo[1,2-a]pyrazin-7-yl}-2-fluorophenyl)ethyl]-7-methoxy-1,4-oxazocane-2-carboxamide] |
